In patent publication US9365851B2, “Spalt-like transcription factor 4 (SALL4) and uses thereof” (National University of Singapore, priority 2011, dated 2016):
“Also recorded” adds a separate entry of the source.

Assays:
PTEN/AKT pathway = PTEN/AKT pathway expression in SNU-387 cells after treatment (Western blot); assay type: cell-based, human; settings: SNU-387, Western blot
Text: The induction of Pten expression was not affected when wt peptide was administrated together with a Pten inhibitor. AKT, a molecule with levels of phosphorylation controlled by the expression of Pten was affected by the wt peptide addition accordingly. […] The effect of wt peptide on pAKT was abrogated by the Pten inhibitor. […] In contrast, the protein expression level of endogenous Pten was very high in the none-SALL4 expressing SNU387 cells.
To confirm the involvement of PTEN tumor suppressor in SALL4 peptide-induced reduction of number of viable HCC cells, PTEN expression was analyzed by western blot upon drug treatment. […] Whether the increase in PTEN expression upon SALL4 peptide treatment has an effect in PI3K signalling by dephosphorylating AKT was examined.
To confirm the involvement of the PTEN tumor suppressor in the SALL4 peptide-induced reduction of HCC cell viability, PTEN expression was analyzed by western blot upon drug treatment. […] If the increase in PTEN expression has an effect in PI3K signaling was next examined. PTEN functions as a phosphatase to dephosphorylate AKT.

primary human AML cells = test: Xenotransplantation of shRNA-transduced primary human AML cells into NSG mice; assay type: in vivo
Text: The phenotype of wt peptide treatment was then compared with that of downregulation of SALL4 in primary AML cells. SALL4-specific shRNA (7210 and 7412, FIG. 6A) validated by previous studies were used for these experiments. FACS analysis with Annexin V/PI staining confirmed that there was a 2-fold increase in cell apoptosis and cell death in vitro in primary AML cells when SALL4 expression was reduced (FIG. 6B). In addition, there was an increased survival of leukemic recipient mice in vivo upon knocking down of SALL4 expression in these primary AML samples (FIG. 6C). 1.5×10^6 SALL4 shRNA or control retrovirus-treated primary human AML cells were transplanted into sublethally irradiated (1.0 Gy) NOD/SCID/IL2rγ-null mice by tail vein injection. Fatal AML with onset ranging from one to three months developed in all control recipient (7 out of 7) and some SALL4 shRNA recipient (2 out of 6) mice after transplantation. The transplanted leukemia disease was characterized by immature blasts with human CD45 expression in peripheral blood, bone marrow, and tissues such as liver and spleen (FIGS. 6C-6F). […] While the median survival of control recipient mice (N=7) was 33 days, the median survival of SALL4 shRNA recipient mice (N=6) was 109 days. Both the Log rank (also called Mantel-Cox, P=0.03 (FIG. 4H) and Gehan-Breslow-Wilcoxon (P=0.01)) tests were used for survival analysis and were statistically significant.
NSG (NOD.Cg-Prkdcscid Il2rgtm 1Wjl/SzJ, The Jackson Laboratory, ME, USA) mice were bred and maintained in the Children's Hospital Boston animal facility. All animal work has been approved by and done according to the guidelines of the IACUC under protocol 10-10-1832. Human primary AML cells exposed to various peptides or carrier only (1.0×10^6 cells per mouse) or transduced with SALL4-shRNA or control lentivirus (1.5×10^6 cell per mouse) were transplanted into 10- to 12-week old mice received 135 cGy sublethal irradiation 2-4 h before the injection via the dorsal tail vein. Mice were euthanized when they became ill or at 78 days post-transplantation. BM was removed from the two femurs by flushing with RPMI1640 medium, spleen cells were abstained by mincing and filtering through a cell strainer and peripheral blood was collected from the heart. […] The percentage of human CD45+ cells was calculated as follows: % human CD45+ cells=No. human CD45+ cells/(No. human CD45+ cells+No. mouse CD45+ cells)×100. […]
SALL4 is critical for leukemic cell survival in the AML cell line NB4 (Yang, et al., Blood, 112:805-813 (2008)). […] 48 hours after transduction, the viability of cells was determined by flow cytometry after staining with Annexin V and propidium iodide (PI). […]

Substance | PTEN protein expression (PTEN/AKT pathway) | phosphorylated AKT (pAKT) level (PTEN/AKT pathway) | PTEN protein expression (PTEN/AKT pathway; listed as SALL4 peptide) | recipient mice without leukemia / still healthy (primary human AML cells; four months after transplantation) | recipient mice that developed fatal AML / leukemia (primary human AML cells; mouse, in vivo) | human CD45 positive cells in non-leukemic recipients (primary human AML cells; peripheral blood, bone marrow or spleen) | median survival of recipient mice (primary human AML cells; transduced primary human AML cells, tail vein)
H-MSRRKQAKPQHI-OH [wt peptide, MSRRKQAKPQHI] | did not seem to change the expression of Pten significantly | little or no effect | slight increase in PTEN expression; also recorded: negligible effect on PTEN expression |  |  |  | 
GATGCCTTGAAACAAGCCAAGCTACCTCA (chemistry not given here) [compound 7412, SALL4 shRNA used in primary AML cells] |  |  |  | four out of six | 2 out of 6 | less than 0.5% | 109 days
